Experimental findings from patent USRE49735E1 (BRISTOL-MYERS SQUIBB COMPANY, priority 2010, dated 2023) are described below.

Where “and” joins values, the source holds several entries; their conditions need not be identical. Equal entries are not always repeated.

The target in the assay is human mGluR5A (Homo sapiens, UniProt P41594). The assay is described as follows: mGluR5 FLIPR Assay. Type of assay: cell-based. The note with it: positive modulator activity; HEK293 (ZF) cells with human mGluR5A and rat GLAST; Ca++ response to ~EC10 glutamate.
human mGluR5A, sequence (P41594 21-1180 isoform P41594-2): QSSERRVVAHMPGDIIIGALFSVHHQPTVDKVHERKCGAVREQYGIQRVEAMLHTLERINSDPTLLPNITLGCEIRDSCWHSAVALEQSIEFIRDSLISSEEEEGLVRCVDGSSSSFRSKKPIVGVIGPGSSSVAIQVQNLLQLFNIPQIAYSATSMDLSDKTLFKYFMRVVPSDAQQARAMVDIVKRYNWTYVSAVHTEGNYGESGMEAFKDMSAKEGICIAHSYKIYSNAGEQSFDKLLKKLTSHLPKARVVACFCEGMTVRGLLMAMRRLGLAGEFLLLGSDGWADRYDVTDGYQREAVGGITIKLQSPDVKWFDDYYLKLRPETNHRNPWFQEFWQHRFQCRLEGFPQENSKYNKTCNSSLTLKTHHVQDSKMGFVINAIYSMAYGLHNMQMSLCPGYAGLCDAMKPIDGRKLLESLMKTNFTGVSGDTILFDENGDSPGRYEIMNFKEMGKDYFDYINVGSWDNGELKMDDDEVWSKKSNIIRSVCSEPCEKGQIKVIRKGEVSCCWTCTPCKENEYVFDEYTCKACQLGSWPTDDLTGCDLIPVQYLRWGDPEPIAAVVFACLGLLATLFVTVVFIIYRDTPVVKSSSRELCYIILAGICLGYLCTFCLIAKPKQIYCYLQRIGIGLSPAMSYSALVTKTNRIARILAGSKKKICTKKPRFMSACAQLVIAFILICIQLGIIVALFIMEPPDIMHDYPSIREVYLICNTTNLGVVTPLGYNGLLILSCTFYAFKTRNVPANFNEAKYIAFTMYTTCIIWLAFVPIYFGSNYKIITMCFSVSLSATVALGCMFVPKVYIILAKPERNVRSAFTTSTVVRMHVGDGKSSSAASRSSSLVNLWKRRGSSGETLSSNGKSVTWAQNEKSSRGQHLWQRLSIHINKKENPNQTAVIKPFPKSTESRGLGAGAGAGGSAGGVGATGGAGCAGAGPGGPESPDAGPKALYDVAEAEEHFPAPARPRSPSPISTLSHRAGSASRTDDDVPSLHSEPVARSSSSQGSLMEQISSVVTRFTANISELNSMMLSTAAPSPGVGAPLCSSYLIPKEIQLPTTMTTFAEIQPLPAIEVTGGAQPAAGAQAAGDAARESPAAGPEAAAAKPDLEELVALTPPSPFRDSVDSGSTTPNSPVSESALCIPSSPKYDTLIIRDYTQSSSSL
`COc1cccc([C@H]2OC(=O)N[C@@H]2c2cccc(C#Cc3cncnc3)c2)c1` [Example 65, (4R,5R)-5-(3-Methoxyphenyl)-4-(3-(pyrimidin-5-ylethynyl)phenyl)oxazolidin-2-one]: the EC50 – broadly, the midpoint of the concentration-response curve – is 100 to 1000 nM and 139 nM. In turn, `COc1cccc([C@H]2OC(=O)N[C@@H]2c2cccc(C#Cc3ccc4ccccc4n3)c2)c1` [Example 66, (4R,5R)-5-(3-Methoxyphenyl)-4-(3-(quinolin-2-ylethynyl)phenyl)oxazolidin-2-one] displayed an EC50 of 100 to 1000 nM. The result for `COc1cccc([C@H]2OC(=O)N[C@@H]2c2cccc(C#Cc3cc4ccccc4cn3)c2)c1` [Example 67, (4R,5R)-4-(3-(Isoquinolin-3-ylethynyl)phenyl)-5-(3-methoxyphenyl)oxazolidin-2-one] reads above 1000 nM; that for `COc1cccc([C@H]2OC(=O)N[C@@H]2c2cccc(C#Cc3cscn3)c2)c1` [Example 68], below 100 nM; that for `COc1cccc([C@H]2OC(=O)N[C@@H]2c2cccc(C#Cc3ccc(F)nc3)c2)c1` [Example 69], below 100 nM.

The compound `COc1cccc([C@H]2OC(=O)N[C@@H]2c2cccc(C#Cc3ccc(C#N)nc3)c2)c1` [Example 70, 5-((3-((4R,5R)-5-(3-Methoxyphenyl)-2-oxazolidin-4-yl)phenyl)ethynyl)picolinonitrile] gave an EC50 above 1000 nM. The result for `COc1cccc([C@H]2OC(=O)N[C@@H]2c2cccc(C#Cc3ccc(OC)nc3)c2)c1` [Example 71, (4R,5R)-5-(3-Methoxyphenyl)-4-(3-((6-methoxypyridin-3-yl)ethynyl)phenyl)oxazolidin-2-one] reads 100 to 1000 nM and 325 nM; that for `COc1cccc([C@H]2OC(=O)N[C@@H]2c2cccc(C#Cc3cccc(F)n3)c2)c1` [Example 72, (4R,5R)-4-(3-((6-Fluoropyridin-2-yl)ethnyl)phenyl)-5-(3-methoxyphenyl)oxazolidin-2-one], below 100 nM. Compound `COc1cccc([C@H]2OC(=O)N[C@@H]2c2cccc(C#Cc3ccnc(F)c3)c2)c1` [Example 73, (4R,5R)-4-(3-((2-Fluoropyridin-4-yl)ethynyl)phenyl)-5-(3-methoxyphenyl)oxazolidin-2-one] yielded an EC50 below 100 nM. As for `COc1cccc([C@H]2OC(=O)N[C@@H]2c2cccc(C#Cc3ccncn3)c2)c1` [Example 74, (4R,5R)-5-(3-Methoxyphenyl)-4-(3-(pyrimidin-4-ylethynyl)phenyl)oxazolidin-2-one], the figure is above 30000 nM; as for `COc1cccc([C@H]2OC(=O)N[C@@H]2c2cccc(C#Cc3cccc(C#N)n3)c2)c1` [Example 75, 6-((3-((4R,5R)-5-(3-Methoxyphenyl)-2-oxooxazolidin-4-yl)phenyl)ethynyl)picolinonitrile], above 30000 nM; as for `COc1cccc([C@H]2OC(=O)N[C@@H]2c2cccc(C#Cc3cnc4ccccc4c3)c2)c1` [Example 76, (4R,5R)-5-(3-Methoxyphenyl)-4-(3-(quinolin-3-ylethynyl)phenyl)oxazolidin-2-one], above 30000 nM.

With `COc1cccc([C@H]2OC(=O)N[C@@H]2c2cccc(C#Cc3cccc(O)n3)c2)c1` [Example 77, (4R,5R)-4-(3-((6-Hydroxypyridin-2-yl)ethnyl)phenyl)-5-(3-methoxyphenyl)-oxazolidin-2-one], the EC50 is above 1000 nM. The result for `COc1cccc([C@H]2OC(=O)N[C@@H]2c2cccc(C#Cc3cccnc3OC)c2)c1` [Example 78, (4R,5R)-5-(3-Methoxyphenyl)-4-(3-((2-methoxypyridin-3-yl)ethynyl)phenyl)oxazolidin-2-one] reads above 1000 nM; that for `COc1cccc([C@H]2OC(=O)N[C@@H]2c2cccc(C#Cc3cccnc3F)c2)c1` [Example 79, (4R,5R)-4-(3-((2-Fluoropyridin-3-yl)ethynyl)phenyl)-5-(3-methoxyphenyl)oxazolidin-2-one], below 100 nM. As for `COc1cccc([C@H]2OC(=O)N[C@@H]2c2cccc(C#Cc3cncc(C#N)c3)c2)c1` [Example 80, 5-((3-((4R,5R)-5-(3-Methoxyphenyl)-2-oxooxazolidin-4yl)-phenyl)ethynyl)nicotinonitrile], the figure is below 100 nM.

Take `COc1cccc([C@H]2OC(=O)N[C@@H]2c2cccc(C#Cc3cncc(F)c3)c2)c1` [Example 81, (4R,5R)-4-(3-((5-Fluoropyridin-3-yl)ethynyl)phenyl)-5-(3-methoxyphenyl)oxazolidin-2-one]: the EC50 was below 100 nM. The result for `COc1cccc([C@H]2OC(=O)N[C@@H]2c2cccc(C#Cc3ccc(Cl)nc3)c2)c1` [Example 82, (4R,5R)-4-(3-((6-Chloropyridin-3-yl)ethynyl)phenyl)-5-(3-methoxyphenyl)oxazolidin-2-one] reads 100 to 1000 nM; that for `COc1cccc([C@H]2OC(=O)N[C@@H]2c2cccc(C#Cc3ccc(C)nc3)c2)c1` [Example 83, (4R,5R)-5-(3-Methoxyphenyl)-4-(3-((6-methylpyridin-3-yl)ethynyl)phenyl)oxazolidin-2-one], 100 to 1000 nM; that for `COc1cccc([C@H]2OC(=O)N[C@@H]2c2cccc(C#Cc3cnccc3Cl)c2)c1` [Example 84, (4R,5R)-4-(3-((4-Chloropyridin-3-yl)ethynyl)phenyl)-5-(3-methoxyphenyl)oxazolidin-2-one], above 1000 nM. `COc1cccc([C@H]2OC(=O)N[C@@H]2c2cccc(C#Cc3cccnc3Cl)c2)c1` [Example 85, (4R,5R)-4-(3-((2-Chloropyridin-3-yl)ethynyl)phenyl)-5-(3-methoxyphenyl)oxazolidin-2-one] came in with an EC50 above 1000 nM. The result for `COc1cccc([C@H]2OC(=O)N[C@@H]2c2cccc(C#Cc3cncc(C)c3)c2)c1` [Example 86, (4R,5R)-5-(3-Methoxyphenyl)-4-(3-((5-methylpyridin-3-yl)ethynyl)phenyl)oxazolidin-2-one] reads below 100 nM; that for `COc1cccc([C@H]2OC(=O)N[C@@H]2c2cccc(C#Cc3cccnc3C)c2)c1` [Example 87, (4R,5R)-5-(3-Methoxyphenyl)-4-(3-((2-methylpyridin-3-yl)ethynyl)phenyl)oxazolidin-2-one], above 1000 nM; that for `COc1cccc([C@H]2OC(=O)N[C@@H]2c2cccc(C#Cc3cnccc3C)c2)c1` [Example 88, (4R,5R)-5-(3-Methoxyphenyl)-4-(3-((4-methylpyridin-3-yl)ethynyl)phenyl)oxazolidin-2-one], above 1000 nM.

`COc1cccc([C@H]2OC(=O)N[C@@H]2c2cccc(C#Cc3ccnc(OC)c3)c2)c1` [Example 89, (4R,5R)-5-(3-Methoxyphenyl)-4-(3-((2-methoxypyridin-4-yl)ethnyl)phenyl)oxazolidin-2-one] registered an EC50 above 1000 nM. As for `COc1cccc([C@H]2OC(=O)N[C@@H]2c2cccc(C#Cc3ccccc3C#N)c2)c1` [Example 90, 2-((3-((4R,5R)-5-(3-Methoxyphenyl)-2-oxooxazolidin-4-yl)phenyl)ethynyl)benzonitrile], the figure is above 1000 nM; as for `COc1cccc([C@H]2OC(=O)N[C@@H]2c2cccc(C#Cc3ccccc3OC)c2)c1` [Example 91, (4R,5R)-5-(3-Methoxyphenyl)-4-(3-((2-methoxyphenyl)ethynyl)phenyl)oxazolidin-2-one], 100 to 1000 nM; as for `COc1cccc([C@H]2OC(=O)N[C@@H]2c2cccc(C#Cc3cnccc3OC)c2)c1` [Example 92, (4R,5R)-5-(3-Methoxyphenyl)-4-(3-((4-methoxypyridin-3-yl)ethynyl)phenyl)oxazolidin-2-one], above 1000 nM. The result for `CNc1ncc(C#Cc2cccc([C@H]3NC(=O)O[C@@H]3c3cccc(OC)c3)c2)cn1` [Example 93] reads above 1000 nM; that for `CCOc1ncc(C#Cc2cccc([C@H]3NC(=O)O[C@@H]3c3cccc(OC)c3)c2)cn1` [Example 94, (4R,5R)-4-(3-((2-Ethoxypyrimidin-5-yl)ethynyl)phenyl)-5-(3-methoxyphenyl)oxazolidin-2-one], above 1000 nM. The result for `O=C1N[C@@H](c2cccc(C#Cc3ccccc3)c2)[C@@H](c2ccccc2)O1` [Example 97, (4S,5R)-5-phenyl-4-(3-(phenylethynyl)phenyl)oxazolidin-2-one] reads above 1000 nM; that for `Cc1ccc([C@H]2OC(=O)N[C@@H]2c2cccc(C#Cc3ccccc3)c2)cc1C` [Example 101, (4R,5R)-5-(3,4-dimethylphenyl)-4-(3-(phenylethynyl)phenyl)oxazolidin-2-one], below 100 nM. The compound `Cc1ccc([C@H]2OC(=O)N[C@@H]2c2cccc(C#Cc3ccccc3)c2)cc1` [Example 107] gave a 50% effective concentration (EC50) below 100 nM. As to `Cc1ccc([C@@H]2OC(=O)N[C@H]2c2cccc(C#Cc3ccccc3)c2)cc1` [Example 108], the EC50 is above 1000 nM. `O=C1N[C@H](c2cccc(C#Cc3ccccc3)c2)[C@@H](c2ccccc2F)O1` [Example 109, (4R,5R)-5-(2-fluorophenyl)-4-(3-(phenylethynyl)phenyl)oxazolidin-2-one]: the half-maximal effective concentration (EC50) is below 100 nM. The result for `O=C1N[C@@H](c2cccc(C#Cc3ccccc3)c2)[C@H](c2ccccc2F)O1` [Example 110, (4S,5S)-5-(2-fluorophenyl)-4-(3-(phenylethynyl)phenyl)oxazolidin-2-one] reads above 1000 nM; that for `O=C1NC(c2cccc(C#Cc3ccccc3)c2)C(c2cccc(F)c2)O1` (centres unmarked) [Example 113], 100 to 1000 nM. As for `O=C1N[C@@H](c2cccc(C#Cc3ccccc3)c2)[C@H](c2ccc(F)cc2)O1` [Example 115, (4S,5S)-5-(4-fluorophenyl)-4-(3-(phenylethynyl)phenyl)oxazolidin-2-one], the figure is above 1000 nM.

Take `O=C1N[C@H](c2cccc(C#Cc3ccccc3)c2)[C@@H](c2cccnc2)O1` [Example 117, (4R,5R)-4-(3-(phenylethynyl)phenyl)-5-(pyridin-3-yl)oxazolidin-2-one]: the EC50 is < 100 nM and 4.7 nM.

`O=C1N[C@@H](c2cccc(C#Cc3ccccc3)c2)[C@H](c2cccnc2)O1` [Example 118, (4S,5S)-4-(3-(phenylethynyl)phenyl)-5-(pyridin-3-yl)oxazolidin-2-one]: the EC50 is above 1000 nM. In the case of `COc1cccc([C@H]2OC(=O)N[C@@H]2c2cccc(C#Cc3ccc(C(F)(F)F)cc3)c2)c1` [Example 119, (4R,5R)-5-(3-methoxyphenyl)-4-(3-((4-(trifluoromethyl)phenyl)ethynyl)phenyl)oxazolidin-2-one], the EC50 was above 1000 nM.
